We go through nine compounds from PubChem BioAssay (NCI).

Test systems include MALME-3M melanoma; 786-0 renal; HCC-2998 colon; HOP-92 NSCLC; UO-31 renal; NCI-H522 lung; HCT-15 colon; M14 melanoma; SF-539 CNS; OVCAR-5 ovarian.
What all share (assay): NCI tumour cell line growth inhibition, 48 h

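Step 1: Grow cells in 96-well plates. Step 2: Expose to compound for 48 hours at 5 concentrations. Step 3: Interpolate endpoints linearly; if unreached, use highest concentration. GI50 is the concentration that inhibits growth by half. Definition used: TGI = concentration required for complete inhibition of growth.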 Bounds are passed on as bounds.

On to `O=C(CN1C(=O)S/C(=C\C(Cl)=C\c2ccccc2)C1=O)NCCc1ccc(O)cc1`, for which the GI50 in the test on MALME-3M melanoma is 2.03 µM; with 786-0 renal, 1.84 µM; in the test on HCC-2998 colon, 1.85 µM; in the test with HOP-92 NSCLC it was 1.58 µM; in the test with UO-31 renal, 1.64 µM; in the test on NCI-H522 lung it was 1.96 µM. In addition, the GI50 in the test on HCT-15 colon is 1.52 µM; with M14 melanoma it was 1.65 µM; in the test on SF-539 CNS it was 1.74 µM; with OVCAR-5 ovarian it was 2.31 µM. The TGI with MALME-3M melanoma turned out to be 5.96 µM; in the test with 786-0 renal, 3.54 µM; with HCC-2998 colon, 3.33 µM; in the test with HOP-92 NSCLC it was 5.05 µM; in the test on UO-31 renal it was 3.31 µM; with NCI-H522 lung, 5.77 µM. Further, the TGI in the test with HCT-15 colon was 4.56 µM; in the test with M14 melanoma, 4.11 µM; with SF-539 CNS, 3.63 µM; in the test with OVCAR-5 ovarian it was 5.66 µM.

In the case of `CS(=O)(=O)c1ccc(Oc2cc(F)cc(C#N)c2)c2c1[C@H](O)C(F)(F)C2`, the GI50 in the test with MALME-3M melanoma, with 786-0 renal, in the test with HCC-2998 colon, in the test with HOP-92 NSCLC, in the test with UO-31 renal and in the test on NCI-H522 lung was more than 100 µM in each case. Besides, the GI50 in the test on HCT-15 colon, in the test on M14 melanoma, in the test with SF-539 CNS and with OVCAR-5 ovarian was more than 100 µM throughout. Also, the TGI in the test on MALME-3M melanoma, in the test with 786-0 renal, with HCC-2998 colon, in the test with HOP-92 NSCLC, in the test on UO-31 renal and in the test on NCI-H522 lung was more than 100 µM throughout. Moreover, the TGI in the test on HCT-15 colon, with M14 melanoma, in the test with SF-539 CNS and in the test with OVCAR-5 ovarian was more than 100 µM throughout.

`O=C1OC(c2ccccc2)=N/C1=C\c1cc(Cl)ccc1Cl`: the TGI in the test with MALME-3M melanoma, in the test with 786-0 renal, with HCC-2998 colon, in the test with HOP-92 NSCLC, in the test with UO-31 renal and in the test on NCI-H522 lung was more than 100 µM each time. For the same compound, the TGI with HCT-15 colon was 82.9 µM; in the test on M14 melanoma it was more than 100 µM; with SF-539 CNS, more than 100 µM; in the test on OVCAR-5 ovarian, more than 100 µM.

On to `CCOC(=O)N[C@@H]1C2CC(=O)C(O2)[C@@H]1OC` (stereo not given in full), for which the TGI in the test with MALME-3M melanoma, in the test on 786-0 renal, in the test on HCC-2998 colon, in the test with HOP-92 NSCLC, in the test with UO-31 renal and with NCI-H522 lung was more than 100 µM each time. For the same compound, the TGI in the test with HCT-15 colon, in the test on M14 melanoma, in the test on SF-539 CNS and in the test on OVCAR-5 ovarian was more than 100 µM in each case.

`COc1ccc(OC)c(/C=C2\COc3ccc(O)c(O)c3C2=O)c1`: the GI50 was 2.1 µM with MALME-3M melanoma; 2.28 µM with 786-0 renal; 1.88 µM in the test with HCC-2998 colon; 2.8 µM in the test with HOP-92 NSCLC; 1.22 µM in the test on UO-31 renal; 0.219 µM with NCI-H522 lung. Further, the GI50 is 1.3 µM in the test with HCT-15 colon, 2.09 µM with M14 melanoma, 2.23 µM with SF-539 CNS and 2.62 µM in the test on OVCAR-5 ovarian. For the same compound, the TGI worked out at 6.58 µM in the test on MALME-3M melanoma; 7.12 µM in the test on 786-0 renal; 3.48 µM in the test with HCC-2998 colon; 8.86 µM in the test on HOP-92 NSCLC; 2.6 µM in the test on UO-31 renal; 0.58 µM with NCI-H522 lung. For the same compound, the TGI in the test on HCT-15 colon was found to be 6.5 µM; in the test with M14 melanoma, 6.9 µM; with SF-539 CNS, 5.19 µM; in the test on OVCAR-5 ovarian, 6.48 µM.

For the compound `CCN(CC)CCCC(Cc1ccccc1)Nc1c2ccc(Cl)cc2nc2ccc(OC)cc12` (stereo not given), the GI50 is 2.02 µM in the test on MALME-3M melanoma; 1.4 µM in the test on 786-0 renal; 1.61 µM with HCC-2998 colon; 2.1 µM with HOP-92 NSCLC; 1.35 µM in the test on UO-31 renal; 1.81 µM with NCI-H522 lung. Moreover, the GI50 was 1.88 µM in the test with HCT-15 colon, 1.82 µM in the test with M14 melanoma, 1.7 µM with SF-539 CNS and 2.67 µM in the test with OVCAR-5 ovarian. In addition, the TGI in the test on MALME-3M melanoma is 3.6 µM; with 786-0 renal, 3.34 µM; in the test on HCC-2998 colon it was 3.3 µM; in the test with HOP-92 NSCLC, 4.9 µM; with UO-31 renal, 2.69 µM; in the test with NCI-H522 lung, 3.57 µM. In addition, the TGI is 4.72 µM with HCT-15 colon, 3.51 µM with M14 melanoma, 3.33 µM in the test on SF-539 CNS and 12.7 µM in the test with OVCAR-5 ovarian.

For the compound `CCC[CH2][Sn]1([CH2]CCC)[O]CC(CN2CCOCC2)[O]1` (stereo not given), the GI50 in the test on MALME-3M melanoma was 1.62 µM; in the test on 786-0 renal, 2.63 µM; in the test on HCC-2998 colon it was 8.82 µM; in the test with HOP-92 NSCLC it was 3.7 µM; in the test on UO-31 renal, 10.1 µM; with NCI-H522 lung it was 1.12 µM. The GI50 in the test with HCT-15 colon is 6.4 µM; in the test on M14 melanoma, 2.86 µM; in the test with SF-539 CNS, 2.96 µM; with OVCAR-5 ovarian it was 18.8 µM. The TGI in the test with MALME-3M melanoma came to 5.64 µM; in the test on 786-0 renal, 7.39 µM; in the test on HCC-2998 colon it was 21.6 µM; in the test with HOP-92 NSCLC it was 14 µM; with UO-31 renal, 21.7 µM; in the test on NCI-H522 lung, 2.55 µM. The TGI was 18.6 µM in the test on HCT-15 colon, 10.3 µM in the test with M14 melanoma, 8.59 µM in the test on SF-539 CNS and 32.8 µM with OVCAR-5 ovarian.

As for `N=c1n(Cc2ccccc2)c(N)cc(=O)n1Cc1ccccc1`, the GI50 was 2.94 µM in the test on MALME-3M melanoma; 2.97 µM in the test on 786-0 renal; 4.96 µM with HCC-2998 colon; 2.06 µM in the test on HOP-92 NSCLC; 2.35 µM in the test on UO-31 renal; 0.503 µM in the test on NCI-H522 lung. Further, the GI50 in the test on HCT-15 colon is 3.49 µM; in the test with M14 melanoma, 4.72 µM; in the test on SF-539 CNS, 1.96 µM; with OVCAR-5 ovarian it was 4.27 µM. For the same compound, the TGI came out at 6.87 µM with MALME-3M melanoma; 9.76 µM in the test with 786-0 renal; 29.1 µM with HCC-2998 colon; 10 µM with HOP-92 NSCLC; 5.37 µM with UO-31 renal; 2.42 µM with NCI-H522 lung. The TGI is 12.3 µM with HCT-15 colon, 17.8 µM in the test with M14 melanoma, 4.25 µM in the test with SF-539 CNS and 14.9 µM in the test on OVCAR-5 ovarian.

As to `COc1ccc(C(=O)C(C(=O)C(=O)NC2C3CC4CC(C3)CC2C4)c2ccc(OC)cc2)cc1` (stereo not given), the TGI in the test with MALME-3M melanoma, in the test on 786-0 renal, in the test on HCC-2998 colon, in the test on HOP-92 NSCLC, with UO-31 renal and in the test on NCI-H522 lung was more than 100 µM each time. For the same compound, the TGI with HCT-15 colon, in the test on M14 melanoma, in the test with SF-539 CNS and in the test with OVCAR-5 ovarian was more than 100 µM throughout.
